Measurements: patent publication US11413279B2, “Methods and compositions for the antiviral use of synthetic lysine analogs and mimetics” (priority 2017, dated 2022)
Several values for one entry are separate records, joined by “and”; a condition that tells them apart may be missing. Equal values may be shown once. Read-outs that look alike come from different tables or passages of the source.

How the values were obtained:
[1] = tested on: Herpes Simplex Virus Type 1 (HSV-1); assay: Antiviral activity of tranexamic acid/L-arginine against HSV-1; type: cell-based; conditions: for Viral Promotion (%) / Output Viral Titer (Log10TCID50) / Titer (Log10TCID50/mL) / Viral Reduction (%): contact time 48 ± 8 hours; for Log10 Titer Difference: vs input virus control average 6.39
[2] = tested on: Herpes Simplex Virus Type 1 (HSV-1); type: cell-based
Description: (§1) Contact time for each sample was 48±2 hours and Log10 titer reductions were generated using the input viral titer (Log10TCID50) and the output viral titer (Log10TCID50).
The plate was incubated for 48±2 hours at 36±2° C. with 5±3% CO2. The plate was then frozen at −60 to −90° C., thawed, and the contents of each well centrifuged at 2,000 RPM for 10 minutes. The supernatant from each well was collected and assayed for infectious virus.
as §1

[3] = tested on: Herpes Simplex Virus Type 2 (HSV-2); assay: Antiviral activity of tranexamic acid/L-arginine against HSV-2; type: cell-based; conditions: contact time 48 ± 8 hours
[4] = tested on: cell medium used for HSV-1 and HSV-2; assay: Cytotoxicity limit in the cell medium used for HSV-1 and HSV-2
[5] = tested on: Herpes Simplex Virus Type 1 (HSV-1); conditions: contact time 48 ± 8 hours
[6] = tested on: Herpes Simplex Virus Type 2 (HSV-2); conditions: contact time 48 ± 8 hours
[7] = tested on: recurrent outbreaks of cold sores; assay: Topical treatment and prophylactic use in human subjects with recurrent cold sores; type: in vivo
[8] = 5,000 μM L-arginine alone, listed as L-arginine
[9] = 10,000 μM L-arginine alone, listed as L-arginine
[10] = 2% (w/v) tranexamic acid alone, listed as tranexamic acid
[11] = tranexamic acid 0.5% (w/v), high virus inocula
[12] = tranexamic acid 0.5% (w/v), low virus inocula
[13] = tranexamic acid 0.5% (w/v), low virus inocula, listed as tranexamic acid
[14] = tranexamic acid 1.0% (w/v), high virus inocula
[15] = tranexamic acid 1.0% (w/v), high virus inocula, listed as tranexamic acid
[16] = tranexamic acid 1.0% (w/v), low virus inocula
[17] = tranexamic acid 1.0% (w/v), low virus inocula, listed as tranexamic acid
[18] = tranexamic acid 2.0% (w/v), high virus inocula

## N=C(N)NCCC[C@H](N)C(=O)O [L-Arginine, L-arginine]
[1]; [8]
  Viral Promotion (%): 54%
[1]; 10,000 μM L-arginine alone
  Output Viral Titer (Log10TCID50): 7.21 Log10TCID50 and 7.09 Log10TCID50 and 7.15 Log10TCID50
  Titer (Log10TCID50/mL): 7.21 ± 0.06 Log10TCID50/mL and 7.09 ± 0.09 Log10TCID50/mL and 7.15 ± 0.08 Log10TCID50/mL
  Viral Promotion (%): 85% and 80% and 83%
  Log10 Titer Difference: 0.82 Log10 and 0.70 Log10 and 0.76 Log10
[1]; [9]
  Viral Promotion (%): 85%
[1]; 25,000 μM L-arginine alone
  Viral Promotion (%): 85% and 74% and 65%
[1]; 25,000 μM L-arginine alone, listed as L-arginine
  Viral Promotion (%): 85%
[2]; 0.5 mM L-arginine alone, vs input virus control average
  Log10 titer reduction (peak of replicates): 0.28 Log10
[2]; 2 mM L-arginine alone, vs input virus control average
  Log10 titer reduction (peak of replicates): 0.04 Log10
[2]; 5 mM L-arginine alone, vs input virus control average
  Log10 Titer Reduction: no Log10 titer reduction
[2]; 5 mM L-arginine, HSV-1, contact time 48 ± 2 hours, input viral titer 8.50, 3 replicates
  Log10 Titer Reduction: No reduction
[3]; 5,000 μM L-arginine alone
  Viral Promotion (%): 44% and 76%
  Viral Reduction (%): 32%
[3]; [8]
  Viral Promotion (%): 76%
[3]; [9]
  Viral Promotion (%): 76%
[3]; 25,000 μM L-arginine alone
  Viral Promotion (%): 3%
  Viral Reduction (%): 66%

## N[C@@H](Cc1c[nH]cn1)C(=O)O [L-Histidine, L-histidine]
[2]; 0.5 mM L-histidine alone, contact time 48 ± 2 hours
  Titer (Log10TCID50/mL): 8.46 ± 0.09 Log10TCID50/mL and 8.76 ± 0.06 Log10TCID50/mL and 8.76 ± 0.10 Log10TCID50/mL
[2]; 0.5 mM L-histidine alone, vs input virus control average
  Log10 titer reduction (peak of replicates): 0.04 Log10
[2]; 0.5 mM L-histidine, HSV-1, contact time 48 ± 2 hours, 3 replicates
  Output Viral Titer (Log10TCID50): 8.46 Log10TCID50 and 8.76 Log10TCID50 (2×)
[2]; 1 mM L-histidine alone, contact time 48 ± 2 hours
  Titer (Log10TCID50/mL): 8.70 ± 0.11 Log10TCID50/mL and 8.40 ± 0.11 Log10TCID50/mL
[2]; 1 mM L-histidine alone, vs input virus control average
  Log10 titer reduction (peak of replicates): 0.10 Log10
[2]; 1 mM L-histidine, HSV-1, contact time 48 ± 2 hours, 3 replicates
  Output Viral Titer (Log10TCID50): 8.76 Log10TCID50 and 8.70 Log10TCID50 and 8.40 Log10TCID50
[2]; 5 mM L-histidine alone, contact time 48 ± 2 hours
  Titer (Log10TCID50/mL): 8.52 ± 0.10 Log10TCID50/mL and 8.82 ± 0.08 Log10TCID50/mL and 8.64 ± 0.06 Log10TCID50/mL
[2]; 5 mM L-histidine alone, vs input virus control average
  Log10 Titer Reduction: no Log10 titer reduction
[2]; 5 mM L-histidine, HSV-1, contact time 48 ± 2 hours, 3 replicates
  Output Viral Titer (Log10TCID50): 8.52 Log10TCID50 and 8.82 Log10TCID50 and 8.64 Log10TCID50
[2]; 5 mM L-histidine, HSV-1, contact time 48 ± 2 hours, input viral titer 8.50, 3 replicates
  Log10 Titer Reduction: No reduction
[2]; 10 mM L-histidine alone, contact time 48 ± 2 hours
  Titer (Log10TCID50/mL): 8.70 ± 0.00 Log10TCID50/mL and 8.64 ± 0.06 Log10TCID50/mL
[2]; 10 mM L-histidine alone, vs input virus control average
  Log10 Titer Reduction: no Log10 titer reduction
[2]; 10 mM L-histidine, HSV-1, contact time 48 ± 2 hours, 3 replicates
  Output Viral Titer (Log10TCID50): 8.70 Log10TCID50 and 8.64 Log10TCID50 (2×)
[2]; 10 mM L-histidine, HSV-1, contact time 48 ± 2 hours, input viral titer 8.50, 3 replicates
  Log10 Titer Reduction: No reduction
[2]; 25 mM L-histidine alone, contact time 48 ± 2 hours
  Titer (Log10TCID50/mL): 8.64 ± 0.10 Log10TCID50/mL and 8.52 ± 0.12 Log10TCID50/mL and 8.70 ± 0.00 Log10TCID50/mL

## NC[C@H]1CC[C@H](C(=O)O)CC1 [Tranexamic Acid (TA)]
[2]; 2% (w/v) tranexamic acid, HSV-1, contact time 48 ± 2 hours, 3 replicates
  Output Viral Titer (Log10TCID50): 7.15 Log10TCID50 and 7.21 Log10TCID50 and 7.27 Log10TCID50
[2]; 2% (w/v) tranexamic acid, HSV-1, contact time 48 ± 2 hours, input viral titer 8.50, 3 replicates
  Log10 Titer Reduction: 1.35 Log10 and 1.29 Log10 and 1.23 Log10

## NC[C@H]1CC[C@H](C(=O)O)CC1 [Tranexamic Acid, tranexamic acid]
[1]; 2% (w/v) tranexamic acid alone
  Output Viral Titer (Log10TCID50): 5.30 Log10TCID50 and 5.12 Log10TCID50
  Titer (Log10TCID50/mL): 5.24 ± 0.08 Log10TCID50/mL and 5.30 ± 0.10 Log10TCID50/mL and 5.12 ± 0.10 Log10TCID50/mL
  Viral Reduction (%): 93% and 92% and 95%
  Log10 Titer Difference: −1.15 Log10 and −1.09 Log10 and −1.27 Log10
[1]; [10]
  Viral Reduction (%): 95%
[2]
  Titer (Log10TCID50/mL): 7.15 ± 0.08 Log10TCID50/mL and 7.21 ± 0.06 Log10TCID50/mL and 7.27 ± 0.00 Log10TCID50/mL
[2]; 2% (w/v) tranexamic acid alone, vs input virus control average
  Log10 titer reduction (peak of replicates): 1.29 Log10
[3]; 2% (w/v) tranexamic acid alone
  Viral Reduction (%): 99.6% and 99.7% and 99.3%
[3]; [10]
  Viral Reduction (%): 99.7%
[4]
  maximum concentration that could be used without cytotoxicity: 2 % (w/v)
[5]; [11]
  Output Viral Titer (Log10TCID50): 6.19 Log10TCID50 and 6.43 Log10TCID50 and 6.37 Log10TCID50
  Reduction (%): 45.9%
  Titer (Log10TCID50/mL): 6.19 ± 0.08 Log10TCID50/mL and 6.43 ± 0.13 Log10TCID50/mL and 6.37 ± 0.11 Log10TCID50/mL
[5]; [12]
  Output Viral Titer (Log10TCID50): 5.24 Log10TCID50 and 5.54 Log10TCID50
  Reduction (%): 62.9% and 90.5% and 81.0%
[5]; [13]
  Reduction (%): 90.5%
[5]; [14]
  Output Viral Titer (Log10TCID50): 6.43 Log10TCID50 and 6.61 Log10TCID50
  Titer (Log10TCID50/mL): 6.43 ± 0.12 Log10TCID50/mL and 6.61 ± 0.11 Log10TCID50/mL and 6.43 ± 0.13 Log10TCID50/mL
[5]; [15]
  Reduction (%): 5.9%
[5]; [16]
  Output Viral Titer (Log10TCID50): 4.34 Log10TCID50
  Reduction (%): 97.9% and 98.8% and 75.5%
[5]; [17]
  Reduction (%): 98.8%
[5]; [18]
  Output Viral Titer (Log10TCID50): 5.71 Log10TCID50 and 5.42 Log10TCID50
  Reduction (%): 82.1% and 90.8%
  Titer (Log10TCID50/mL): 5.71 ± 0.12 Log10TCID50/mL and 5.42 ± 0.06 Log10TCID50/mL
[5]; tranexamic acid 2.0% (w/v), high virus inocula, listed as tranexamic acid
  Reduction (%): 90.8%
[6]; [11]
  Reduction (%): 52.85%
[6]; [12]
  Output Viral Titer (Log10TCID50): 5.77 Log10TCID50 and 5.71 Log10TCID50
  Reduction (%): 78.94% and 64.24% and 68.85%
  Titer (Log10TCID50/mL): 5.54 ± 0.09 Log10TCID50/mL and 5.77 ± 0.10 Log10TCID50/mL and 5.71 ± 0.08 Log10TCID50/mL
[6]; [13]
  Reduction (%): 78.94%
[6]; [14]
  Output Viral Titer (Log10TCID50): 7.62 Log10TCID50 and 7.44 Log10TCID50 and 7.38 Log10TCID50
  Reduction (%): 37.85% and 58.94% and 64.24%
  Titer (Log10TCID50/mL): 7.62 ± 0.08 Log10TCID50/mL and 7.44 ± 0.11 Log10TCID50/mL and 7.38 ± 0.10 Log10TCID50/mL
[6]; [15]
  Reduction (%): 64.24%
[6]; [16]
  Output Viral Titer (Log10TCID50): 5.60 Log10TCID50 and 5.83 Log10TCID50 and 5.89 Log10TCID50
  Reduction (%): 75.82% and 58.94% and 52.85%
  Titer (Log10TCID50/mL): 5.89 ± 0.10 Log10TCID50/mL and 5.60 ± 0.09 Log10TCID50/mL and 5.83 ± 0.08 Log10TCID50/mL
[6]; [17]
  Reduction (%): 75.82%
[6]; [18]
  Reduction (%): 99.98% and 99.85%
[7]; fourth subject, 10% (w/v) tranexamic acid topically a single time at onset
  outcome of cold sore outbreak: the following morning the blister was gone and the outbreak had ceased
[7]; one subject, 3 or 10% (w/v) tranexamic acid applied to face daily for approximately one year, usual experience 3 to 5 outbreaks
  cold sore outbreaks during the year: one
[7]; person, approximately 0.25 mL aqueous solution of 5% (w/v) tranexamic acid by swab, 5 times over 36 hours
  time until cold sore had healed to only a small red spot: ≤ 36 h
[7]; three human subjects, 3% (w/v) tranexamic acid topically several times a day from beginning of outbreak, usual duration about 2 weeks
  time until symptoms of the outbreak resolved: ≤ 48 h
